Measurements reported in US12486269B2 (Aconcagua Bio, Inc., priority 2024, dated 2025).

Columns and labels:
[1] = molecular target: T1, COS-7/AMY3 (human calcitonin receptor (CTR) and RAMP3) (Homo sapiens, UniProt O60896+P30988); assay: Amylin Receptor cAMP Assay II; type: cell-based; settings: values marked **: Amylin Receptor cAMP Assay II; COS-7/AMY3 cells, cAMP dynamic 2 kit, 30 min; read-out: Amylin Receptor cAMP Stimulation Activity: EC50
T1 construct: expressed in transfected cells; host or cells: COS-7
T1 sequence (O60896 24-148, one chain of several): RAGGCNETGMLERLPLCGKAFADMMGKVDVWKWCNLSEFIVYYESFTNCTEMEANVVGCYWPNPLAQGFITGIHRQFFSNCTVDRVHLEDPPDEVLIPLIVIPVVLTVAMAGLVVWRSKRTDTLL
How it was run: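 Agonist-induced cAMP was quantified by HTRF ratio at 665/615 nm and expressed as % of the window from vehicle to MAX control. Stimulation lasted 30 min at 37 °C in HBSS/20 mM HEPES/0.5 mM IBMX/0.1% casein, using stable human CTR+RAMP3 (AMY3) COS-7 cells at 2000 per well.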

[2] = molecular target: T2, human calcitonin receptor (CTR) (Homo sapiens, UniProt P30988); assay: Calcitonin Receptor (CTR) cAMP Assay; type: cell-based; settings: COS7-human CTR Clone #2 stable cell line, cAMP dynamic 2 kit, 30 min; read-out: Calcitonin Receptor cAMP Stimulation Activity: EC50
T2 construct: expressed in transfected cells; host or cells: COS-7 (COS7-human CTR Clone #2)
T2 sequence (P30988 25-474): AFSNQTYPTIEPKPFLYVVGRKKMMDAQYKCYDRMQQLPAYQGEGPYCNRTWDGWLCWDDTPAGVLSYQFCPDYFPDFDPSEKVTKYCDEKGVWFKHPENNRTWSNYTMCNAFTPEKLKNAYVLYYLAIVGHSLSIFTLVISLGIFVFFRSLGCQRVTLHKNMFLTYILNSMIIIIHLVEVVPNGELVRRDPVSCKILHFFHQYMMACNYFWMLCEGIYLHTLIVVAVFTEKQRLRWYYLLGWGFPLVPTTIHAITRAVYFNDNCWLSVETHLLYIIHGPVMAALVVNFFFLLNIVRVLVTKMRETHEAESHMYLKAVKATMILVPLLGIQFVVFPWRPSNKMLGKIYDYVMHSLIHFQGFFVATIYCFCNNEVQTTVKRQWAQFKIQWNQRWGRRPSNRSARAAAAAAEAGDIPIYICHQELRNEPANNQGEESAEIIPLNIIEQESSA
How it was run: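 cAMP accumulation was measured by HTRF cAMP dynamic 2 read at 665/615 nm, 1 h at room temperature, with results scaled between vehicle and positive control. Before detection, COS7-human CTR stable cells were stimulated 30 min at 37 °C with compound (4-fold dilutions) in IBMX-containing HBSS/HEPES/casein buffer.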

EC50 [1] [nM]	EC50 [2] [nM]	Compound
273	21.5	O=C(NCc1ccc(F)c(F)c1)c1ccc(-c2c3c(nc(CCc4ccc(F)cc4)c2-c2cc(=O)[nH]o2)[C@@H]2CCCN2C3=O)s1 [Compound 103, (S)—N-(3,4-difluorobenzyl)-5-(2-(4-fluorophenethyl)-5-oxo-3-(3-oxo-2,3-dihydroisoxazol-5-yl)-7,8,9,9a-tetrahydro-5H-pyrido[2,3-a]pyrrolizin-4-yl)thiophene-2-carboxamide]
52.9	7.85	COc1cccc2c1CC[C@H]2Nc1nccc2cc(-c3c4c(nc(CCc5ccc(F)cc5)c3-c3n[nH]c(=O)o3)[C@H]3N(CCC3(C)C)C4=O)sc12 [Compound 182, 5-((S)-2-(4-fluorophenethyl)-4-(7-(((R)-4-methoxy-2,3-dihydro-1H-inden-1-yl)amino)thieno[2,3-c]pyridin-2-yl)-9,9-dimethyl-5-oxo-7,8,9,9a-tetrahydro-5H-pyrido[2,3-a]pyrrolizin-3-yl)-1,3,4-oxadiazol-2(3H)-one]
39.9	4.28	O=C1c2c(nc(CCc3ccc(F)cc3)c(-c3n[nH]c(=O)o3)c2-c2ccc3c(c2)oc(=O)n3Cc2ccc(F)cn2)[C@@H]2CCCN12 [Compound 164, (S)-6-(2-(4-fluorophenethyl)-5-oxo-3-(5-oxo-4,5-dihydro-1,3,4-oxadiazol-2-yl)-7,8,9,9a-tetrahydro-5H-pyrido[2,3-a]pyrrolizin-4-yl)-3-((5-fluoropyridin-2-yl)methyl)benzo[d]oxazol-2(3H)-one]
47.8	0.706	COc1cccc2c1CC[C@H]2Nc1nccc2cc(-c3c4c(nc(C[C@H]5COc6cc(F)ccc65)c3-c3n[nH]c(=O)o3)[C@@H]3CCCN3C4=O)sc12 [Compound 217, 5-((S)-2-(((R)-6-fluoro-2,3-dihydrobenzofuran-3-yl)methyl)-4-(7-(((R)-4-methoxy-2,3-dihydro-1H-inden-1-yl)amino)thieno[2,3-c]pyridin-2-yl)-5-oxo-7,8,9,9a-tetrahydro-5H-pyrido[2,3-a]pyrrolizin-3-yl)-1,3,4-oxadiazol-2(3H)-one]
34.4	9.03	CN(Cc1ccc(F)c(F)c1)c1nccc2cc(-c3c4c(nc(CCc5ccc(F)cc5)c3-c3noc(=O)[nH]3)[C@@H]3CCCN3C4=O)sc12 [Compound 107, (S)-3-(4-(7-((3,4-difluorobenzyl)(methyl)amino)thieno[2,3-c]pyridin-2-yl)-2-(4-fluorophenethyl)-5-oxo-7,8,9,9a-tetrahydro-5H-pyrido[2,3-a]pyrrolizin-3-yl)-1,2,4-oxadiazol-5(4H)-one]
182	8.9	COc1cccc2c1CC[C@H]2N1Cc2cc(-c3c4c(nc(CCc5ccc(F)cc5)c3-c3n[nH]c(=O)o3)C35CC(CN3C4=O)C5)ccc2C1=O [Compound 240, (R)-5-(2-(4-fluorophenethyl)-4-(2-(4-methoxy-2,3-dihydro-1H-inden-1-yl)-1-oxoisoindolin-5-yl)-5-oxo-8,9-dihydro-5H,7H-8,9a-methanopyrido[2,3-a]pyrrolizin-3-yl)-1,3,4-oxadiazol-2(3H)-one]
31.9	0.347	COc1cccc2c1CC[C@H]2Nc1nccc2cc(-c3c4c(nc(CCc5ccc(F)cc5)c3-c3n[nH]c(=O)o3)[C@@H]3COCCN3C4=O)sc12 [Compound 174, (R)-2-(4-fluorophenethyl)-4-(7-(((R)-4-methoxy-2,3-dihydro-1H-inden-1-yl)amino)thieno[2,3-c]pyridin-2-yl)-3-(5-oxo-4,5-dihydro-1,3,4-oxadiazol-2-yl)-7,8,10,10a-tetrahydro-5H-pyrido[2′,3′:3,4]pyrrolo[2,1-c][1,4]oxazin-5-one]

Further lines, the molecule ahead of its results:

Compound	EC50 [1] [nM]	EC50 [2] [nM]
C[C@@H](Nc1nccc2cc(-c3c4c(nc(CCc5ccc(F)cc5)c3-c3n[nH]c(=O)o3)[C@@H]3CCCN3C4=O)sc12)c1ccc(F)cc1F [Compound 228, 5-((S)-4-(7-(((R)-1-(2,4-difluorophenyl)ethyl)amino)thieno[2,3-c]pyridin-2-yl)-2-(4-fluorophenethyl)-5-oxo-7,8,9,9a-tetrahydro-5H-pyrido[2,3-a]pyrrolizin-3-yl)-1,3,4-oxadiazol-2(3H)-one]	3030	25.7
O=C(N[C@@H]1CCc2cc(F)c(F)cc21)c1ccc(-c2c3c(nc(CCc4ccc(F)cc4)c2-c2noc(=O)[nH]2)[C@@H]2CCCN2C3=O)s1 [Compound 120]	23.6	1.24
COc1cccc2c1CC[C@H]2Nc1nccc2cc(-c3c4c(nc(CCc5cccc(C(F)(F)F)c5)c3-c3n[nH]c(=O)o3)[C@@H]3CCCN3C4=O)sc12 [Compound 171, 5-((S)-4-(7-(((R)-4-methoxy-2,3-dihydro-1H-inden-1-yl)amino)thieno[2,3-c]pyridin-2-yl)-5-oxo-2-(3-(trifluoromethyl)phenethyl)-7,8,9,9a-tetrahydro-5H-pyrido[2,3-a]pyrrolizin-3-yl)-1,3,4-oxadiazol-2(3H)-one]	71.4	1.52
O=C1c2c(nc(CCc3ccc(F)cc3)c(-c3n[nH]c(=O)o3)c2-c2cc3ccnc(N[C@@H]4CCc5cc(F)ccc54)c3s2)C23CC(CN12)C3 [Compound 280, (R)-5-(4-(7-((5-fluoro-2,3-dihydro-1H-inden-1-yl)amino)thieno[2,3-c]pyridin-2-yl)-2-(4-fluorophenethyl)-5-oxo-5,7,8,9-tetrahydro-8,9a-methanopyrido[2,3-a]pyrrolizin-3-yl)-1,3,4-oxadiazol-2(3H)-one]	0.935	0.114
O=C1c2c(nc(CCc3ccc(F)cc3)c(-c3n[nH]c(=O)o3)c2-c2cc3ccnc(N[C@@H]4CCc5cc(F)c(F)cc54)c3s2)C23CC(CN12)C3 [Compound 190, (R)-5-(4-(7-((5,6-difluoro-2,3-dihydro-1H-inden-1-yl)amino)thieno[2,3-c]pyridin-2-yl)-2-(4-fluorophenethyl)-5-oxo-8,9-dihydro-5H,7H-8,9a-methanopyrido[2,3-a]pyrrolizin-3-yl)-1,3,4-oxadiazol-2(3H)-one]	0.184	0.00786
O=C1c2c(nc(CCc3ccc(F)cc3)c(-c3noc(=O)[nH]3)c2-c2ccc3nn(C4CCc5ccccc54)cc3c2)[C@@H]2CCCN12 (stereo partly drawn) [Compound 152]	5100	513
COc1nccc2c1CC[C@H]2Nc1nccc2cc(-c3c4c(nc(CCc5ccc(F)cc5)c3-c3n[nH]c(=O)o3)C35CC(CN3C4=O)C5)sc12 [Compound 264, (R)-5-(2-(4-fluorophenethyl)-4-(7-((1-methoxy-6,7-dihydro-5H-cyclopenta[c]pyridin-5-yl)amino)thieno[2,3-c]pyridin-2-yl)-5-oxo-8,9-dihydro-5H,7H-8,9a-methanopyrido[2,3-a]pyrrolizin-3-yl)-1,3,4-oxadiazol-2(3H)-one]	7.4	0.247
N#Cc1ccc(Cn2ccc3cc(-c4c(-c5n[nH]c(=O)o5)c(CCc5ccc(F)cc5)nc5c4c(=O)n4n5CCC4)ccc32)cc1F [Compound 158, 2-fluoro-4-((5-(2-(4-fluorophenethyl)-5-oxo-3-(5-oxo-4,5-dihydro-1,3,4-oxadiazol-2-yl)-8,9-dihydro-5H,7H-pyrazolo[1′,2′:1,2]pyrazolo[3,4-b]pyridin-4-yl)-1H-indol-1-yl)methyl)benzonitrile]	12.8	1.19
COc1cc(F)cc2c1CC[C@H]2Nc1nccc2cc(-c3c4c(nc(CCc5ccc(F)cc5)c3-c3n[nH]c(=O)o3)C35CC(CN3C4=O)C5)sc12 [Compound 294, (R)-5-(4-(7-((6-fluoro-4-methoxy-2,3-dihydro-1H-inden-1-yl)amino)thieno[2,3-c]pyridin-2-yl)-2-(4-fluorophenethyl)-5-oxo-5,7,8,9-tetrahydro-8,9a-methanopyrido[2,3-a]pyrrolizin-3-yl)-1,3,4-oxadiazol-2(3H)-one]	0.562	0.0435
O=C1c2c(nc(CCc3ccc(F)cc3)c(-c3noc(=O)[nH]3)c2-c2cc3ccnc(OCc4ccc(F)c(F)c4)c3s2)[C@@H]2CCCN12 [Compound 133, (S)-3-(4-(7-((3,4-difluorobenzyl)oxy)thieno[2,3-c]pyridin-2-yl)-2-(4-fluorophenethyl)-5-oxo-7,8,9,9a-tetrahydro-5H-pyrido[2,3-a]pyrrolizin-3-yl)-1,2,4-oxadiazol-5(4H)-one]	90.7	4.42
O=C1c2c(nc(CCC34CCC(CC3)OC4)c(-c3n[nH]c(=O)o3)c2-c2cnc3c(ccn3Cc3ccc(F)cn3)c2)[C@@H]2CCCN12 [Compound 232, (S)-5-(2-(2-(2-oxabicyclo[2.2.2]octan-4-yl)ethyl)-4-(1-((5-fluoropyridin-2-yl)methyl)-1H-pyrrolo[2,3-b]pyridin-5-yl)-5-oxo-7,8,9,9a-tetrahydro-5H-pyrido[2,3-a]pyrrolizin-3-yl)-1,3,4-oxadiazol-2(3H)-one]	12000	412
